Results on two molecules are retold here after PMC9879403, “Oncolytic strategy using new bifunctional HDACs/BRD4 inhibitors against virus-associated lymphomas” (PLOS Pathogens, 2023).

The structures appear in SMILES notation. Read-outs that look alike come from different tables or passages of the source.

Data set [1] concerns BRD4. Nature of the data set: BRD4 signaling by Western blot (c-Myc expression). As to conditions: BCBL-1 cells, 48 h, Western blot. Type of data set: cell-based. (In western blotting, separated proteins are transferred to a membrane and probed.)
Data set [2] relates to BCP-1. As to the kind of experiment: WST-1 cytotoxicity assay, BCP-1 (KSHV+ PEL). As to conditions: BCP-1, 72 h. Type of data set: cell-based. From the text:
(§1) Fig 2 Identification of newly synthesized dual inhibitors with anti-PEL activities. (A) The binding mode of (+)-JQ1 with BRD4^BD1 (PDB: 3MXF). BRD4^BD1 is shown as hot pink cartoon with gray surface. Asn140 in BRD4^BD1 is shown as sticks and colored in following pattern: atom C hot pink, atom N dark blue, and atom O yellow. (+)-JQ1 is shown as sticks and colored in following patten: atom C hot pink, atom N dark blue, atom O yellow, atom S golden, and atom Cl green. The solvent exposed region (SEG) of (+)-JQ1 are indicated with white arrow. (B) The binding modes of SAHA and entinostat with HDAC2 (PDB: 3MAX). HDAC2 is shown as blue cartoon with gray surface. Asp181 and His183 in HDAC2 are shown as sticks and colored in following pattern: atom C blue, atom N dark blue, and atom O yellow. The catalytic zinc ion in the active site of HDAC2 is shown as black sphere. SAHA is shown as sticks and colored in following pattern: atom C green, atom N dark blue, and atom O yellow. Entinostat is shown as sticks and colored in following pattern: atom C hot pink, atom N dark blue, and atom O yellow. The SEG of SAHA or entinostat is indicated with white arrow. Hydrogen bonds (H-bonds) are presented by red dash lines. (C) The HDACs/BRD4 dual inhibitors 002-011 were designed by fusing the key pharmacophores of (+)-JQ1 (pink) and HDAC inhibitors (blue), SAHA or entinostat, via various chemical linkers (green). (D) Anti-PEL activities of the new compounds. Five KSHV positive and two KSHV negative lymphoma cell lines were treated with indicated concentrations of these compounds for 72 h. Then the cytotoxicity was determined using the WST-1 assay. (+)-JQ1, SAHA and entinostat were used for the comparisons as single inhibitors. The CC50 for each compound was calculated using GraphPad Prism 5.0 software. Error bars represent S.D. for 3 independent experiments.
(§2) Fig 4 Identification of anti-PEL activities for compound 009 stereoisomers. (A) The chemical structures of anti-HDACs/BRD4 bifunctional molecules 009P1 and 009P2, as well as anti-HDACs or anti-BRD4 mono-functional molecules 009N1, 009N2, 009N3, and 009N4. (B-C) Four KSHV+ PEL cell lines were treated with indicated concentrations of 009P1, 009P2 or 009N1-N4 for 72 h, then the cytotoxicity was determined using the WST-1 assay. (D-I) BCBL-1 cells were treated with these compounds at the respective 2× CC50 for 24 h, then cell cycle (D-F) and apoptosis (G-I) were measured by flow cytometry analysis. Error bars represent S.D. for 3 independent experiments, ** = p<0.01 (vs vehicle control).
(§3) The cell viability following treatment with compounds was assessed by the WST-1 assay (Roche, Indianapolis, Indiana, USA) according to the manufacturer’s protocol as described previously. The absorbance signal was measured using a microplate reader (Biotek Synergy 2). The 50% cytotoxic concentration (CC50) for each compound was calculated from these dose-response curves using the software GraphPad Prism v5.0. Data were normalized as the fold change compared to the DMSO control.
A general note: Tetrazolium dyes change colour on reduction, which living cells bring about.

Data set [3] has as its system HUVEC. As to the kind of experiment: WST-1 cytotoxicity on primary cells HUVEC. It counts as cell-based, human. Here is the method:
as §3
Supplementary file ppat.1011089.s006.tif: S5 Fig Cytotoxicity of tested compounds on HUVEC. The primary cells HUVEC were treated with indicated concentrations of compounds for 72 h, then cell viability was assessed using the WST-1 assay. The CC50 for each compound was calculated from the dose-response curves using Graphpad Prism 5.0 software. Data was normalized as the fold change compared to the DMSO control. (TIF) Click here for additional data file.

Data set [4] has as its system HDACs. As to the kind of experiment: HDACs signaling by Western blot (H3K9Ac, H4K9Ac, Acetyl-tubulin). Type of data set: cell-based. As to conditions: BCBL-1 cells, 48 h, Western blot.
Data set [5] deals with JSC-1. Nature of the data set: WST-1 cytotoxicity assay, JSC-1 (KSHV+ PEL). Type of data set: cell-based. As to conditions: 72 h.
Description: as §1, §2, §3

Data set [6] relates to BCBL-1. Nature of the data set: WST-1 cytotoxicity assay, BCBL-1 (KSHV+ PEL). It counts as cell-based. As to conditions: BCBL1, 72 h.
Description: as §1, §2, §3

Data set [7] deals with BCBL-1 cells. Nature of the data set: PEL xenograft model (BCBL-1 cells i.p.). As to conditions: 20 mg/kg. Here is the method:
(A) Plasma concentrations of (+)-JQ1, SAHA, or 009P1 after a single administration of 50 mg per kg body (i.p. injection) were presented as mean ± SD (n = 3 mice per time point). (B-E) NOD/SCID mice were injected i.p. with BCBL-1 cells. 72 h later, the compounds or vehicle were administered i.p. as described in the Methods, and weights were recorded weekly. At the end of the treatment period, the splenic tissues were collected from the vehicle or compound treated mice, compared and processed with the H&E and IHC staining. (F) Plasma concentrations of 009P1 after a single administration of 50 mg per kg body (oral gavage) were presented as mean ± SD (n = 3 mice per time point). (G-I) NOD/SCID mice were injected i.p. with BCBL-1 cells. 72 h later, the compounds or vehicle were administered orally as described in the Methods, and weights were recorded weekly.
In all NOD/SCID mice, 6–8-week-old, male (Jackson Laboratory, Ellsworth, Maine, USA), 1 × 10^7 BCBL-1 cells in 200 μL RMPI-1640 without FBS were injected intraperitoneally and then mice were randomized into treatment groups of 6 mice as described previously. The tested compounds or vehicle was administered initially at 72 h after BCBL-1 injections, and continued once daily, 2 days per week for 3 weeks. Weights were recorded weekly as a surrogate measure of tumor progression. At the end of experiment, the spleens of mice were excised for immunoblots and immunohistochemical analyses.
Formalin-fixed, paraffin-embedded tissues were microtome-sectioned to a thickness of 4 μm and placed on electromagnetically charged slides. Immunohistochemistry was performed as described previously, and the c-Myc and H3K9Ac antibodies were purchased from Abcam. Images were collected using an Olympus BX61 microscope equipped with a high resolution DP72 camera and CellSense image capture software.

For data set [8], the system named is BCBL-1 cells. As to the kind of experiment: Cell death regulatory proteins by Western blot. Type of data set: cell-based. As to conditions: 50 nM, 48 h.
The subject of data set [9] is KSHV. Nature of the data set: Viral DNA levels in PEL cells by qPCR. It counts as cell-based. For orientation: In qPCR the cycle at which signal appears reflects the starting amount.
The test system of data set [10] is KSHV. Type of data set: cell-based.
Data set [11] deals with BC-1. Nature of the data set: WST-1 cytotoxicity assay, BC-1 (KSHV+ PEL). Type of data set: cell-based. As to conditions: Homo sapiens, BC1, 72 h.
Description: as §1, §2, §3

For data set [12], the system named is BCBL-1 cells. Nature of the data set: RNA-Sequencing of compound-treated vs vehicle-treated cells. Type of data set: cell-based, human. How it is done:
RNA-Sequencing (RNA-Seq) of triplicate samples was performed by BGI Americas Corporation using their unique DNBSEQ sequencing technology. The completed RNA-Sequencing data was submitted to NCBI Sequence Read Archive (SRA# # PRJNA813422). Raw sequencing reads were analyzed using the RSEM software (version 1.3.0; human GRCh38 genome sequence and annotation) and gene expression was quantified as previously described. The EBSeq software was utilized to call differentially expressed genes that were statistically significant using a false discovery rate (FDR) less than 0.05. Differentially expressed genes between compounds- and vehicle-treated PEL cells were used as input for the GO enrichment analyses.

Data set [13] in a line: WST-1 cytotoxicity assay, BL-41 (KSHV negative lymphoma). Type of data set: cell-based. As to conditions: human.
Description: as §1, §3

A short description of data set [14]: WST-1 cytotoxicity assay, BJAB (KSHV negative lymphoma). Type of data set: cell-based. As to conditions: human.
Description: as §1, §3

Data set [15] relates to BJAB.219. Nature of the data set: WST-1 cytotoxicity assay, BJAB.219 (KSHV-infected lymphoma). It counts as cell-based. As to conditions: 72 h, read-out: KSHV-infected lymphomas CC50, BJAB.219.
Description: as §1
BCBL-1 and iSLK.219 cells were kindly provided by Dr. Pinghui Feng (University of Southern California). BL-41, BJAB, BCP-1, BC-1, BC-3, JSC-1, HUVEC cells were purchased from American Type Culture Collection (ATCC), and cultured as recommended by the manufacturer. For making BJAB.219 cells, BJAB cells were infected with rKSHV.219 stock by spinoculation as previously reported by centrifugation at 1500×g for 60 min [31]. Then, puromycin (10 μg/ml) was added into the medium at 72 h post-infection and the medium containing puromycin was replaced twice a week. After 6-week high concentration of puromycin selection, BJAB.219 cells were then cultured in the medium with 0.5 μg/ml puromycin.
The cell viability following treatment with compounds was assessed by the WST-1 assay (Roche, Indianapolis, Indiana, USA) according to the manufacturer’s protocol as described previously. The absorbance signal was measured using a microplate reader (Biotek Synergy 2). […]

Data set [16] deals with KSHV. Type of data set: cell-based, human.
Where [17] appears, read: gene expression, treated vs vehicle BCBL-1 cells.

For `Cc1sc2c(c1C)C(c1ccc(Cl)cc1)=N[C@@H](CC(=O)O[C@@H](C)c1ccc(C(=O)Nc3ccccc3N)cc1)c1nnc(C)n1-2` [009P2, (S)-1-(4-((2-aminophenyl)carbamoyl)phenyl)ethyl 2-((S)-4-(4-chlorophenyl)-2,3,9-trimethyl-6H-thieno[3,2-f][1,2,4]triazolo[4,3-a][1,4]diazepin-6-yl)acetate], the c-Myc expression result in [1] was “decreased”. In data set [2] (read-out: CC50, BCP-1), the CC50 amounted to 0.028 µM. The “Cytotoxicity in primary cells HUVEC” value in data set [3] is given as “much less cytotoxicity”. The “H3K9Ac, H4K9Ac and Acetyl-tubulin protein levels” value in data set [4] is “increased”. In addition, in data set [5] (read-out: CC50, JSC-1), the CC50 is 0.11 µM. Further, in data set [6] (read-out: CC50, BCBL-1), the CC50 came to 0.0033 µM. Also, in [7] (i.p.), the “PEL tumor progression (ascites formation, spleen enlargement)” value was “dramatically suppressed PEL tumor progression”; the “Tumor infiltration into the spleen (H&E)” value is on record as “only diffuse small tumor nodules”; the “Visible toxicity in mice (abnormal weight loss)” value is on record as “not observed”. For the same molecule, in [7] (oral administration), the “Tumor burden in mice (ascites formation, spleen enlargement)” value is on record as “effectively repressed tumor burden”. Further, the “Expression of p-RB, cleaved-caspase 3 and cleaved-PARP” value in data set [8] is reported as “strongly affected”. In addition, in [9], the “Viral DNA levels” value is listed as “slightly increased”. In addition, the “Expression of viral genes (LANA, RTA, ORF26)” value in data set [10] was “significantly increased”. Moreover, the CC50 in [11] (read-out: CC50, BC-1) stood at 0.0055 µM. Besides, the “Genes differentially expressed between 009P1- and 009P2-treated PEL cells” value in data set [12] (BCBL-1, ≥ 2 fold-change and FDR < 0.05) was determined as 715 genes. In [12] (setting [17]), the “Ratio, ARC” value is 17.91; the “Ratio, ARRDC3” value is given as 41.32; the “Ratio, ATF3” value is given as 22.98; the “Ratio, CCDC169-SOHLH2” value was determined as 0.1511. In data set [12] (setting [17]), the “Ratio, CD28” value stood at 0.1264; the “Ratio, CD44” value was found to be 0.1695; the “Ratio, CFAP58” value is listed as 0.2474; the “Ratio, CHAC1” value is 9.244. Also, in data set [12] (setting [17]), the “Ratio, CSF1R” value is given as 42.35; the “Ratio, DDIT3” value turned out to be 16.53; the “Ratio, DDIT4” value came to 24.97; the “Ratio, FOS” value came to 77. In data set [12] (setting [17]), the “Ratio, IFNG” value was determined as 0.1337; the “Ratio, IRF7” value was 28.87; the “Ratio, LGALS9B” value came out at 0.03508; the “Ratio, MCM5” value was 0.1. Further, in [12] (setting [17]), the “Ratio, PRKCB” value was 0.03195; the “Ratio, RP11-707M3.3” value worked out at 0.2332; the “Ratio, SOCS3” value came to 41.85; the “Ratio, SPINT1” value worked out at 0.1311.

For `Cc1sc2c(c1C)C(c1ccc(Cl)cc1)=N[C@@H](CC(=O)OC(C)c1ccc(C(=O)Nc3ccccc3N)cc1)c1nnc(C)n1-2` (stereo partly drawn) [compound 009, 1-(4-((2-aminophenyl)carbamoyl)phenyl)ethyl 2-((S)-4-(4-chlorophenyl)-2,3,9-trimethyl-6H-thieno[3,2-f][1,2,4]triazolo[4,3-a][1,4]diazepin-6-yl)acetate], the values for the CC50 at 72 h in data set [13] and in data set [14] were 3.37 µM and 1.32 µM, respectively. Moreover, the CC50 is 0.23 µM in data set [15]; 0.12 µM in [2] (read-out: KSHV-infected lymphomas CC50, BCP-1); 0.084 µM in data set [5] (read-out: KSHV-infected lymphomas CC50, JSC-1); 0.02 µM in data set [6] (read-out: KSHV-infected lymphomas CC50, BCBL-1); 0.096 µM in data set [11] (read-out: KSHV-infected lymphomas CC50, BC-1). Besides, the “Expression of lytic genes RTA, PF and ORF26” value in data set [16] is “elevated”.

By CC50 is commonly meant the concentration giving 50% cytotoxicity.
